One assay has as its target CRBN/DDB1 (Homo sapiens, UniProt Q96SW2). Kind of assay: HTRF binding assay (displacement of Cy5-thalidomide probe from CRBN/DDB1). Conditions: CRBN/DDB1 2.5 nM, Cy5-Thalidomide 100 nM, 30 min; geometric mean; read-out: HTRF_Thali_Disp_DR_geo_IC50. Summed up: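 HTRF displacement of Cy5-thalidomide probe (100 nM) from His-tagged CRBN/DDB1 (2.5 nM) with anti-His terbium cryptate, in HEPES/NaCl/TCEP/EDTA/Tween20 buffer; 10-point 1:3 series, 30 min at ambient temperature. 665/620 nm ratio fitted 4-parameter logistic for IC50; Ki via Cheng-Prusoff.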
A general note: TR-FRET usually uses a lanthanide donor and a delayed reading to cut background.

Another assay deals with T1, CK1α (Homo sapiens, UniProt P48729+Q96SW2).
T1 construct: HEK293 clonal lines with CRISPR KI HiBiT tag on CSNK1A1; host or cells: HEK293 clonal line, CRISPR knock-in HiBiT at the CSNK1A1 locus, stably expressing LgBiT
Kind of assay: CK1α NanoBit Assay (HiBiT-tagged CSNK1A1 in HEK293 cells, luminescence). It counts as cell-based. Conditions: 24 h. Summed up:
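HEK293 with endogenous HiBiT-tagged CSNK1A1 and stable LgBiT, live-cell Endurazine substrate; compound added at 10 or 30 μM final top concentration after 16 h plating, then 24 h at 37 °C. Luminescence normalised to plate controls; DC50 by 3-parameter logistic fit, hill slope 1.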
In general terms: The HiBiT peptide binds its large partner to form an active luciferase.

Structures are written as SMILES. pIC50: −log10 of the molar value.

T1 sequence (P48729 whole entry): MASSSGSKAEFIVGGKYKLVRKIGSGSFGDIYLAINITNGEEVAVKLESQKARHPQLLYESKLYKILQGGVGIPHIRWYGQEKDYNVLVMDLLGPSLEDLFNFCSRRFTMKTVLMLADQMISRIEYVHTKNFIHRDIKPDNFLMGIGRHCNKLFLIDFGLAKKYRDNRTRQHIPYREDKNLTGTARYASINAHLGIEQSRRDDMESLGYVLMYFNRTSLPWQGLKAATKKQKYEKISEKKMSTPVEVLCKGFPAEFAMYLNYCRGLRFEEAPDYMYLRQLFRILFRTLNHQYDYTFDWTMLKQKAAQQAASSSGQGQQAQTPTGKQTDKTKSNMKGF
T1 sequence (Q96SW2 whole entry): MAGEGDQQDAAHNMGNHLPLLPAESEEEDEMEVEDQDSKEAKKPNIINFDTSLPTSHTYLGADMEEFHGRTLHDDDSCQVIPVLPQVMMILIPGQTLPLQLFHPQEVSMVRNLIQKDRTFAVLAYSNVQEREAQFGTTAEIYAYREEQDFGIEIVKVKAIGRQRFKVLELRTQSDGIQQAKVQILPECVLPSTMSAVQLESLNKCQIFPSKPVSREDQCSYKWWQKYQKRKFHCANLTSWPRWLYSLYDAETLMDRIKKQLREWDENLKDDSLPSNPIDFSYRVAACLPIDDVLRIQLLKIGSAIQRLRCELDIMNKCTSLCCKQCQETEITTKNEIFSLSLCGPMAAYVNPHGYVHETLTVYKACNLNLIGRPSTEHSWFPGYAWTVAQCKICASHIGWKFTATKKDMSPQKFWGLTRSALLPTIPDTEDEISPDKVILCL
T1 sequence (Q16531 whole entry partner): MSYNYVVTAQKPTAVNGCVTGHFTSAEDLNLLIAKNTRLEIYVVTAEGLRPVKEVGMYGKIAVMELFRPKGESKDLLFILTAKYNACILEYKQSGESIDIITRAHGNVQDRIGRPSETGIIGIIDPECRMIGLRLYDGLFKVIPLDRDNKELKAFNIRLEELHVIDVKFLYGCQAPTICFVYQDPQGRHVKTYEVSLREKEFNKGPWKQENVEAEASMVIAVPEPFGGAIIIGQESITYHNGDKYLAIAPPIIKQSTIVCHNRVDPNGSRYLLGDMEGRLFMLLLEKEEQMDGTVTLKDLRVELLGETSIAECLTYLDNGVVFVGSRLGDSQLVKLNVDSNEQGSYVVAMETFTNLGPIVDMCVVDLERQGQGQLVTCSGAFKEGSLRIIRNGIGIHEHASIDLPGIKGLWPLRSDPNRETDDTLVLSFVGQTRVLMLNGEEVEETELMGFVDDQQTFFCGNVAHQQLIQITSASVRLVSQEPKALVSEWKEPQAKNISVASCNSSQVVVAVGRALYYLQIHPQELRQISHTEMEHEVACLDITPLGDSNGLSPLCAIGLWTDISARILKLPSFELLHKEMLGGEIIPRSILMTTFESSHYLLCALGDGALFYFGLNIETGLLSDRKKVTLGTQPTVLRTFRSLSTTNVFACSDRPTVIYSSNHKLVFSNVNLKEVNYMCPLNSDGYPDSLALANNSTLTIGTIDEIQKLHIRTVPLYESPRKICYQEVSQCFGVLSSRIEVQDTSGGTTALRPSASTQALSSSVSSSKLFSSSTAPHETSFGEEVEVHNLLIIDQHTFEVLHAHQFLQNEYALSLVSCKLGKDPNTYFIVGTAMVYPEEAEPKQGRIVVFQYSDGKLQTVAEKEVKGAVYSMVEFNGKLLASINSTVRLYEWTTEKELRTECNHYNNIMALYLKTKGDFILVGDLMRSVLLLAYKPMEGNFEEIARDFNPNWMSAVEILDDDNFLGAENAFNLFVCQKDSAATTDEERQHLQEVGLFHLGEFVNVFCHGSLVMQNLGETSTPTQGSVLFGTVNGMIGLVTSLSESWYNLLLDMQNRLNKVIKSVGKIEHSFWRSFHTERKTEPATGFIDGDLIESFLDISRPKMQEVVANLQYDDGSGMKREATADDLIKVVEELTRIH
CRBN/DDB1, sequence (Q96SW2 whole entry): as the sequence (Q96SW2 whole entry) above
CRBN/DDB1, sequence (Q16531 whole entry partner): as the sequence (Q16531 whole entry partner) above

Regarding `CN1CCN(c2ccc(N3CCN(c4ccc5c(c4)CN(C4CCC(=O)NC4=O)C5=O)C3=O)cc2)CC1` (stereo not drawn) [Compound 163, 3-(5-(3-(4-(4-methylpiperazin-1-yl)phenyl)-2-oxoimidazolidin-1-yl)-1-oxoisoindolin-2-yl)piperidine-2,6-dione], the pIC50 on CRBN/DDB1 was 6.00 to 7.00. Further, the DC50 at CK1α is 0.1 to 1 µM.

Turning to `O=C1CCC(N2Cc3cc(N4CCN(C5CC5)C4=O)ccc3C2=O)C(=O)N1` (stereo not drawn) [Compound 164, 3-[5-(3-cyclopropyl-2-oxo-imidazolidin-1-yl)-1-oxo-isoindolin-2-yl]piperidine-2,6-dione], the pIC50 at CRBN/DDB1 was 6.00 to 7.00. The DC50 at CK1α lay within 0.1 to 1 µM.

For `CN1CCN(c2cccc(N3CCN(c4ccc5c(c4)CN(C4CCC(=O)NC4=O)C5=O)C3=O)c2)CC1` (stereo not drawn) [Compound 165, 3-(5-(3-(3-(4-methylpiperazin-1-yl)phenyl)-2-oxoimidazolidin-1-yl)-1-oxoisoindolin-2-yl)piperidine-2,6-dione], on CRBN/DDB1, the pIC50 was 6.00 to 7.00. On CK1α, this compound displayed a DC50 of 0.1 to 1 µM.

`COCc1cc(C)ccc1N1CCN(c2ccc3c(c2)CN(C2CCC(=O)NC2=O)C3=O)C1=O` (stereo not drawn) [Compound 166, 3-(5-(3-(2-(methoxymethyl)-4-methylphenyl)-2-oxoimidazolidin-1-yl)-1-oxoisoindolin-2-yl)piperidine-2,6-dione]: on CRBN/DDB1, the pIC50 was 6.00 to 7.00. For the same compound, the DC50 on CK1α is 0.1 to 1 µM.

Turning to `Cc1ccccc1N1C(=O)N(c2ccc3c(c2)CN(C2CCC(=O)NC2=O)C3=O)C[C@H]1C` (stereo partly drawn) [Compound 167, 3-(5-((R)-4-methyl-2-oxo-3-(o-tolyl)imidazolidin-1-yl)-1-oxoisoindolin-2-yl)piperidine-2,6-dione], the pIC50 at CRBN/DDB1 was 6.00 to 7.00. On CK1α, this compound came in with a DC50 of 0.1 to 1 µM.

`COCc1ccccc1N1CCN(c2ccc3c(c2)CN(C2CCC(=O)NC2=O)C3=O)C1=O` (stereo not drawn) [Compound 168, 3-(5-(3-(2-(methoxymethyl)phenyl)-2-oxoimidazolidin-1-yl)-1-oxoisoindolin-2-yl)piperidine-2,6-dione]: the pIC50 at CRBN/DDB1 is 6.00 to 7.00. Moreover, the DC50 at CK1α fell in the range of 0.1 to 1 µM.

With `COC(C)c1ccccc1N1CCN(c2ccc3c(c2)CN(C2CCC(=O)NC2=O)C3=O)C1=O` (stereo not drawn) [Compound 169, 3-(5-(3-(2-(1-methoxyethyl)phenyl)-2-oxoimidazolidin-1-yl)-1-oxoisoindolin-2-yl)piperidine-2,6-dione], the pIC50 at CRBN/DDB1 is 6.00 to 7.00. For the same compound, at CK1α, the DC50 was in the range of 0.1 to 1 µM.

Consider `O=C1CCC(N2Cc3cc(N4CCN(c5ccc6[nH]cnc6c5)C4=O)ccc3C2=O)C(=O)N1` (stereo not drawn) [Compound 170, 3-(5-(3-(1H-benzo[d]imidazol-5-yl)-2-oxoimidazolidin-1-yl)-1-oxoisoindolin-2-yl) piperidine-2,6-dione], for which the pIC50 at CRBN/DDB1 was at least 7.00. Besides, on CK1α, the DC50 lay within 0.1 to 1 µM.

Take `O=C1CCC(N2Cc3cc(N4CCN(C5CC6(COC6)C5)C4=O)ccc3C2=O)C(=O)N1` (stereo not drawn) [Compound 171, 3-(1-oxo-5-(2-oxo-3-(2-oxaspiro[3.3]heptan-6-yl)imidazolidin-1-yl)isoindolin-2-yl)piperidine-2,6-dione]: the pIC50 on CRBN/DDB1 was 6.00 to 7.00. Moreover, on CK1α, the DC50 was 0.1 to 1 µM.

On to `CN1Cc2cccc(N3CCN(c4ccc5c(c4)CN(C4CCC(=O)NC4=O)C5=O)C3=O)c2C1` (stereo not drawn) [Compound 172, 3-(5-(3-(2-methylisoindolin-4-yl)-2-oxoimidazolidin-1-yl)-1-oxoisoindolin-2-yl)piperidine-2,6-dione], for which the pIC50 at CRBN/DDB1 was at least 7.00. On CK1α, this compound came in with a DC50 above 1 µM.

With `Cc1ccc(N2C(=O)N(c3ccc4c(c3)CN(C3CCC(=O)NC3=O)C4=O)C[C@H]2C(F)F)cc1` (stereo partly drawn) [Compound 173, 3-(5-((S)-4-(difluoromethyl)-2-oxo-3-(p-tolyl)imidazolidin-1-yl)-1-oxoisoindolin-2-yl)piperidine-2,6-dione], the pIC50 on CRBN/DDB1 was 6.00 to 7.00. At CK1α, this compound gave a DC50 above 1 µM.

As for `O=C1CCC(N2Cc3cc(N4CCN(C5CN(c6ccccc6)C5)C4=O)ccc3C2=O)C(=O)N1` (stereo not drawn) [Compound 174, 3-(1-oxo-5-(2-oxo-3-(1-phenylazetidin-3-yl)imidazolidin-1-yl)isoindolin-2-yl)piperidine-2,6-dione], at CRBN/DDB1, the pIC50 is 6.00 to 7.00. On CK1α, this compound gave a DC50 above 1 µM.

For the origin of these results see patent US20250115581A1, “SUBSTITUTED PIPERIDINES AS CK1A DEGRADERS” (Monte Rosa Therapeutics, Inc., priority 2022, published 2025).
